# Test results published in patent US20210299198A1, “DIABETES-ALLEVIATING OR ANTIOXIDANT COMPOSITION COMPRISING YEAST EXTRACT AND METHOD FOR PREPARING YEAST EXTRACT” (COENBIO CO., LTD., priority 2018, published 2021).
# Where two headings read alike, the source gives them in different places.
# Assays:
# [1] = Radical cation de-colorization assay using ABTS; assay type: biochemical
# Description: 7 mM ABTS was mixed with 2.45 mM potassium persulfate and incubated at room temperature for 16 h to create ABTS cations (ABTS^+). […] The results are shown in Tables 5 and 6 (see FIGS. 4 and 8).
# [2] = assay type: biochemical
# Description: First, 50 μL of potassium ferricyanide and 20 μL of each sample were added to 50 μL of a 0.2 M phosphate buffer solution (pH 6.6) and the mixture was allowed to react at 50° C. for 20 min. After completion of the reaction, 50 μL of a 10% TCA solution was added, followed by centrifugation at 3000×g for 20 min. 100 μL of the supernatant, 200 μL of triple-distilled water, and 20 μL of 0.1% ferric chloride were added, and the absorbance was measured at 700 nm. Trolox and BHA were used as positive controls.
# [3] = Free radical scavenging assay using DPPH; assay type: biochemical
# Description: An antioxidant scavenges DPPH radicals, losing its original color and being made transparent. The test sample was mixed with 2,2-diphenyl-1-picrylhydrazyl (DPPH, 100 μM) in a ratio of 1:20 and the mixture was stored at 37° C. for 30 min. After completion of the reaction, the absorbance was measured at 517 nm using a spectrophotometer. A lower absorbance indicates a higher antioxidant activity. […] The results are shown in Tables 3 and 4 (see FIGS. 3 and 7).
compound,measurement,setting,value
"O=C1O[C@H]([C@@H](O)CO)C(O)=C1O [Ascorbic acid, ascorbic acid]",ABTS scavenging activities (IC50) AVERAGE,[1]; yeast extracts 1,260 µg/mL
same,ABTS scavenging activities (IC50) AVERAGE,[1]; yeast extracts 2,260 µg/mL
same,Reducing power activities (absorbance at 700 nm),"[2]; yeast extract 2, 15.625 μg/mL",0.058 ± 0.001
same,Reducing power activities (absorbance at 700 nm),"[2]; yeast extract 2, 62.5 μg/mL",0.267 ± 0.002
same,Reducing power activities (absorbance at 700 nm),"[2]; yeast extract 2, 250 μg/mL",0.940 ± 0.005
same,Reducing power activities (absorbance at 700 nm),"[2]; yeast extract 2, 1000 μg/mL",1.146 ± 0.008
same,Reducing power activities (absorbance at 700 nm),"[2]; yeast extracts 1, 15.625 μg/mL",0.058 ± 0.001
same,Reducing power activities (absorbance at 700 nm),"[2]; yeast extracts 1, 62.5 μg/mL",0.267 ± 0.002
same,Reducing power activities (absorbance at 700 nm),"[2]; yeast extracts 1, 250 μg/mL",0.940 ± 0.005
same,Reducing power activities (absorbance at 700 nm),"[2]; yeast extracts 1, 1000 μg/mL",1.146 ± 0.008
same,DPPH scavenging activities (IC50) AVERAGE,[3]; yeast extracts 1,10 µg/mL
same,DPPH scavenging activities (IC50) AVERAGE,[3]; yeast extracts 2,10 µg/mL
